The test system of data set [1] is Neutrophil. Put plainly: Induction of chemotaxis in BALB/c mouse neutrophils assessed as increase in ratio of cell polarization at 100 nM measured for 15 mins by Zigmond-chamber based microscopy (reference value: 14.6 %). The settings on record: 0.25 h. In kind it is functional.
The test system of data set [2] is Neutrophil. Put plainly: Induction of ROS production in BALB/c mouse neutrophils at 100 nM incubated for 2 hrs by DCFH-DA staining based analysis. In kind it is functional, cell-based.
Data set [3] can be described thus: Drug uptake in Aprepitant-treated BALB/c mouse neutrophils at 20 uM incubated for 30 mins by flow cytometry. In kind it is ADME, cell-based. The settings on record: neutrophil, 0.5 h. (In general: Flow cytometry measures light scatter and fluorescence of single cells or particles in a stream.)
Data set [4] deals with HaCaT. Put plainly: Drug uptake in human HaCaT cells incubated for 30 mins by flow cytometry. Format: functional, cell-based. The settings on record: dose 5-20 µM.
Data set [5] in a line: Drug uptake in BALB/c mouse neutrophils by flow cytometry. Format: ADME, cell-based. The settings on record: neutrophil, dose 2.5-40 µM.
Data set [6] in a line: Drug uptake in Aprepitant-treated mouse RAW264.7 cells at 20 uM incubated for 30 mins by flow cytometry. Format: ADME, cell-based. The settings on record: raw264.7, 0.5 h.
The subject of data set [7] is HaCaT. Kind of data set: Drug uptake in Aprepitant-treated human HaCaT cells 5 to 20 uM incubated for 30 mins by flow cytometry. In kind it is functional, cell-based. The settings on record: dose 5-20 µM.
Data set [8] is described as follows: Drug uptake in HUVEC cells incubated for 30 mins by flow cytometry. Format: ADME, cell-based. The settings on record: human, 0.5 h, dose 5-20 µM.
A short description of data set [9]: Drug uptake in mouse RAW264.7 cells by flow cytometry. The settings on record: dose 2.5-40 µM. Format: ADME, cell-based.
Data set [10] in a line: Drug uptake in Aprepitant-treated HUVEC cells at 5 to 20 uM incubated for 30 mins by flow cytometry. The settings on record: human, 0.5 h, dose 5-20 µM. Format: ADME, cell-based.

Results on 3 compounds are retold here after ChEMBL document CHEMBL5375968, “Peptide TK-HR from the Skin of Chinese Folk Medicine Frog Hoplobatrachus Rugulosus Accelerates Wound Healing via the Activation of the Neurokinin-1 Receptor” (J Med Chem, 2023).

Calls of active or inactive are those of the source. No cut-off for these calls is given here. Residues, ends and D or L forms follow the SMILES beside them.

Regarding `CSCC[C@H](NC=O)C(=O)N[C@@H](CC(C)C)C(=O)N[C@@H](Cc1ccccc1)C(=O)O`, the Activity in the data set with Neutrophil [1] amounted to 56.3%.

As to `CCCCCCCCCCCCCC(=O)O[C@@H]1[C@@H](C)[C@]2(O)[C@@H](C=C(CO)C[C@]3(O)C(=O)C(C)=C[C@@H]23)[C@@H]2C(C)(C)[C@]12OC(C)=O`, the outcome in the data set on Neutrophil [2] was Active.

For `CSCC[C@H](NC(=O)[C@H](CC(C)C)NC(=O)CNC(=O)[C@H](Cc1ccc(O)cc1)NC(=O)[C@H](Cc1ccccc1)NC(=O)[C@H](CCCNC(=N)N)NC(=O)[C@H](CC(=O)O)NC(=O)[C@@H]1CCCN1C(=O)[C@H](CC(N)=O)NC(=O)[C@@H]1CCCN1C(=O)[C@H](CCCCN)NC(=S)Nc1ccc(-c2c3ccc(=O)cc-3oc3cc(O)ccc23)c(C(=O)O)c1)C(N)=O` (HELM PEPTIDE1{[O=C(O)c1cc(NC(=S)[*:2])ccc1-c1c2ccc(=O)cc-2oc2cc(O)ccc12].K.P.N.P.D.R.F.Y.G.L.M.[am]}$$$$V2.0), the Drug uptake result is “Not Active” in data set [3]; “Dose-Dependent Effect” with HaCaT [4]; “Dose-Dependent Effect” in data set [5]; “Not Active” in data set [6]; “Dose-Dependent Effect” in data set [8]; “Dose-Dependent Effect” in [9]. For the same compound, the Drug uptake result in data set [10] was “Not Active”. In addition, the Drug uptake entry in the data set on HaCaT [7] is “inactive”.
